Literature values as cited in patent publication US7413751B2, “Methods of treatment using a gastric retained losartan dosage” (Depomed, Inc., priority 2001, dated 2008).
Where two headings read alike, the source gives them in different places.

Assays:
[1] = test system: diastolic pressure response to angiotensin II

Compound: CCCCc1nc(Cl)c(C(=O)O)n1Cc1ccc(-c2ccccc2-c2nn[nH]n2)cc1 [active metabolite of losartan potassium]
- half-life (Japanese patients tested): 4 to 5 h
- half-life (in vivo): 6 to 9 h
- tmax (in vivo): 2 to 4 h

Compound: CCCCc1nc(Cl)c(CO)n1Cc1ccc(-c2ccccc2-c2nnn[nH]2)cc1.[K] [losartan potassium, 2-butyl-4-chloro-1[p-(o-1H-tetrazol-5-ylphenyl)benzyl]imidazole-5-methanol monopotassium salt]
- effects at 24 hours ([1]; 25 mg dosage): not
- effects at 24 hours ([1]; 50 mg and 100 mg dosages): observed
- peak:trough blood pressure ratio (5-6 hours after dosing: 24 hours after dosing) ([1]; 50 mg dosage): 60%
- peak:trough blood pressure ratio (5-6 hours after dosing: 24 hours after dosing) ([1]; 100 mg dosage): 72%
- blockade of the diastolic pressure response to angiotensin II ([1]; 24 hours after dosing): approximately 30%
